According to patent US20050255595A1, “Genetically modified non-human mammal cells, procedure for their production and use in toxicity tests” (priority 2002, published 2005):
Like-named read-outs stand apart in the source and are kept apart here.

Experiments:
[1] = tested on: single transgenic HPS70/hGH primary hepatocytes (PHGH); experiment: toxicity test, hGH secretion by primary transgenic hepatocytes (PHGH); assay type: cell-based, mice; conditions: PHGH; 10^-5, 5x10^-5, 10^-4 M; 5 h; FIG. 1 graph A
From the text: On the basis of the results illustrated, for the further analyses, clone no. […] The response to the toxic stress of the clone MMH/GH5 was then compared with the one obtained in single transgenic HPS70/hGH primary hepatocytes (PHGH). A representative sample of the cell line derived from said clone MMH/GH5 was deposited in accordance with and for the purposes of the Treaty of Budapest on the international recognition of deposit of micro-organisms for the purposes of the patents procedure with the AID “Centro di Biotecnologie Avanzate (CBA), Interlab Cell Line Collection (ICLC)” Servizio Biotecnologie, Largo R. Benzi, 10, 16132 Genova, Italy, on Jul. 30, 2002, where it was given identification number PD 02007.
(§1) In table 3 the cellular survival percentage was determined with the Trypan Blue exclusion method. […]
(§2) For treatment, the two types of cells were treated with different concentrations of the compounds for 1 or 5 hours and then with normal medium for a further 24 hours. The effects of the treatment were assessed as described previously for the inorganic toxicants.

MMH/GH cells, Clone 9 = conditions: for hGH secreted, 5 h: 5 h treatment; for hGH secreted, 5 + 24 h: 5 h treatment + 24 h recovery
MMH/GH cells, Clone 11 = conditions: Clone 11; for hGH secreted, 5 h: 5 h treatment; for hGH secreted, 5 + 24 h: 5 h treatment + 24 h recovery
[2] = tested on: primary hepatocytes (PHGH); experiment: cellular survival of PHGH, Trypan Blue exclusion; assay type: cell-based, mice; conditions: highest concentrations of the toxicant; Trypan Blue; FIG. 1 graph B
From the text: This different behaviour is explained by the greater sensitivity to the toxicant of the PHGH with respect to the MMH/GH5 as shown by analysis of the cellular vitality performed with the Trypan Blue method (FIG. 1, graph B). […] Therefore the greater resistance of the cells MMH/GH/5 to the toxicants constitutes another evident advantage as it permits the exclusion of false negatives in which the non-release of hGH, due to cellular death, is interpreted as non-toxicity of the compound. When the supernatant is collected after 5 hours of treatment followed by 24 hours of culture with normal medium (FIG. 1 graph C) the PHGHs respond, at the lowest concentrations of the two toxicants, with high levels of secretion of hGH and, at the highest concentrations, with low levels of secretion of hGH (lower cellular survival, graph D).
as §1, §2

MMH/GH cells, Clone 10 = conditions: for hGH secreted, 5 h: 5 h treatment; for hGH secreted, 5 + 24 h: 5 h treatment + 24 h recovery
MMH/GH5 cells (Clone 5) = conditions: for hGH secreted, 5 h / hGH secreted, 5 + 24 h: Clone 5; for hGH secreted, 5 h: 5 h treatment; for hGH secreted, 5 + 24 h: 5 h treatment + 24 h recovery
MMH/GH cells, Clone 4 = conditions: Clone 4; for hGH secreted, 5 h: 5 h treatment; for hGH secreted, 5 + 24 h: 5 h treatment + 24 h recovery
MMH/GH cells, Clone 2 = conditions: for hGH secreted, 5 h: 5 h treatment; for hGH secreted, 5 + 24 h: 5 h treatment + 24 h recovery

In the case of `[Cl][Cd][Cl]` [CdCl2], the “release of hGH in the culture medium in relation to concentration of the toxicant” value [1] is reported as “inversely proportional”, the “hGH secreted, 5 h” value (MMH/GH cells, Clone 9; 5x10^-5 M (As2/Cd2)) is reported as 200 and the “hGH secreted, 5 + 24 h” value (MMH/GH cells, Clone 9; 5x10^-5 M (As2/Cd2)) is reported as 0. For the same compound, the “hGH secreted, 5 h” value (MMH/GH cells, Clone 9; 10^-4 M (As3/Cd3)) was 5, the “hGH secreted, 5 + 24 h” value (MMH/GH cells, Clone 9; 10^-4 M (As3/Cd3)) was 0 and the “hGH secreted, 5 h” value (MMH/GH cells, Clone 9; 10^-5 M (As1/Cd1)) was 0. For the same compound, the “hGH secreted, 5 + 24 h” value (MMH/GH cells, Clone 9; 10^-5 M (As1/Cd1)) was 0, the “hGH secreted, 5 h” value (MMH/GH cells, Clone 11; 5x10^-5 M (As2/Cd2)) was 0 and the “hGH secreted, 5 + 24 h” value (MMH/GH cells, Clone 11; 5x10^-5 M (As2/Cd2)) was 0. For the same compound, the “hGH secreted, 5 h” value (MMH/GH cells, Clone 11; 10^-4 M (As3/Cd3)) was 0, the “hGH secreted, 5 + 24 h” value (MMH/GH cells, Clone 11; 10^-4 M (As3/Cd3)) was 0 and the “hGH secreted, 5 h” value (MMH/GH cells, Clone 11; 10^-5 M (As1/Cd1)) was 40. The “hGH secreted, 5 + 24 h” value (MMH/GH cells, Clone 11; 10^-5 M (As1/Cd1)) was 0, the “survival of the PHGHs” value [2] was “practically nil” and the “hGH secreted, 5 h” value (MMH/GH cells, Clone 10; 5x10^-5 M (As2/Cd2)) was 0. The “hGH secreted, 5 + 24 h” value (MMH/GH cells, Clone 10; 5x10^-5 M (As2/Cd2)) was 12, the “hGH secreted, 5 h” value (MMH/GH cells, Clone 10; 10^-4 M (As3/Cd3)) was 0 and the “hGH secreted, 5 + 24 h” value (MMH/GH cells, Clone 10; 10^-4 M (As3/Cd3)) was 7. For the same compound, the “hGH secreted, 5 h” value (MMH/GH cells, Clone 10; 10^-5 M (As1/Cd1)) was 0, the “hGH secreted, 5 + 24 h” value (MMH/GH cells, Clone 10; 10^-5 M (As1/Cd1)) was 25 and the “hGH secreted, 5 h” value (MMH/GH5 cells (Clone 5); 5x10^-5 M (As2/Cd2)) was 50. The “hGH secreted, 5 + 24 h” value (MMH/GH5 cells (Clone 5); 5x10^-5 M (As2/Cd2)) was 40, the “hGH secreted, 5 h” value (MMH/GH5 cells (Clone 5); 10^-4 M (As3/Cd3)) was 90 and the “hGH secreted, 5 + 24 h” value (MMH/GH5 cells (Clone 5); 10^-4 M (As3/Cd3)) was 20. For the same compound, the “hGH secreted, 5 h” value (MMH/GH5 cells (Clone 5); 10^-5 M (As1/Cd1)) was 25, the “hGH secreted, 5 + 24 h” value (MMH/GH5 cells (Clone 5); 10^-5 M (As1/Cd1)) was 25 and the “release of hGH in the culture medium in relation to concentration of the toxicant” value (MMH/GH5 cells (Clone 5); MMH/GH5, 10^-5, 5x10^-5, 10^-4 M, 5 h, FIG. 1 graph A) was “directly proportional to the concentration of the toxicant”. For the same compound, the “hGH secreted, 5 h” value (MMH/GH cells, Clone 4; 5x10^-5 M (As2/Cd2)) was 0, the “hGH secreted, 5 + 24 h” value (MMH/GH cells, Clone 4; 5x10^-5 M (As2/Cd2)) was 0 and the “hGH secreted, 5 h” value (MMH/GH cells, Clone 4; 10^-4 M (As3/Cd3)) was 0. For the same compound, the “hGH secreted, 5 + 24 h” value (MMH/GH cells, Clone 4; 10^-4 M (As3/Cd3)) was 0, the “hGH secreted, 5 h” value (MMH/GH cells, Clone 4; 10^-5 M (As1/Cd1)) was 0 and the “hGH secreted, 5 + 24 h” value (MMH/GH cells, Clone 4; 10^-5 M (As1/Cd1)) was 0. The “hGH secreted, 5 h” value (MMH/GH cells, Clone 2; 5x10^-5 M (As2/Cd2)) was 0, the “hGH secreted, 5 + 24 h” value (MMH/GH cells, Clone 2; 5x10^-5 M (As2/Cd2)) was 4 and the “hGH secreted, 5 h” value (MMH/GH cells, Clone 2; 10^-4 M (As3/Cd3)) was 0. For the same compound, the “hGH secreted, 5 + 24 h” value (MMH/GH cells, Clone 2; 10^-4 M (As3/Cd3)) was 0, the “hGH secreted, 5 h” value (MMH/GH cells, Clone 2; 10^-5 M (As1/Cd1)) was 0 and the “hGH secreted, 5 + 24 h” value (MMH/GH cells, Clone 2; 10^-5 M (As1/Cd1)) was 0.
